# Test results from patent US20230405078A1, “DETECTION AND TREATMENT OF INTESTINAL FIBROSIS” (THE REGENTS OF THE UNIVERSITY OF CALIFORNIA, priority 2020, published 2023).
# How the values were obtained:
# [1] = system: mouse RAW264.7 macrophages; assay: TNFα secretion in RAW264.7 macrophages; type: cell-based; conditions: elafin 10-1000 ng/ml, 6 h
# Protocol: Mouse RAW264.7 macrophages (#TIB-71, ATCC) were cultured in Dulbecco's modified Eagle's medium (DMEM) (#11965-084, ThermoFisher) with 10% fetal bovine serum (FBS) (#10437-028, Life Technologies) and 1% penicillin/streptomycin/glutamine (P/S/G) (#10378-016, Life Technologies) mixture. The macrophages were serum-starved overnight, followed by exposure to fatty acid-free bovine serum albumin (BSA) (A7030, Sigma), sodium palmitate (P9767, Sigma), or lipopolysaccharide (LPS) (L5418, Sigma) for 2 h, and then the addition of elafin (10-1000 ng/ml) for additional 6 h. The cell-conditioned media were used for mouse TNFα ELISA (DY410, R&D Systems).
# [2] = system: CCD-18Co fibroblasts; assay: Elafin exposure of serum-starved CCD-18Co fibroblasts (Example 1); type: cell-based, human; conditions: elafin 0.1-3 μg/ml, 24 hours, no TGF-β1
# Protocol: FIG. 6. Elafin promotes fibrogenesis in human colonic fibroblasts. (A) The human colonic CCD-18Co fibroblasts were incubated with 100 μl/ml (10%) of human sera from normal, stricturing CD, and non-stricturing CD patients in serum-free DMEM for 24 hours. (B) The human colonic CCD-18Co fibroblasts were incubated with 100 μl/ml (10%) of human sera from high elafin CD group (>8000 pg/ml) and low elafin CD group (<8000 pg/ml) in serum-free DMEM for 24 hours. (C) Serum-starved CCD-18Co fibroblasts were pretreated with 15 μg/ml of anti-elafin neutralizing antibody or control antibody for 30 minutes, followed by exposure to (100 μl/ml) human sera from normal and stricturing CD patients for 24 hours. Six serum donors per group. (D) Serum-starved CCD-18Co fibroblasts were exposed to elafin (0.1-3 μg/ml) for 24 hours. Pro-COL1A1 protein levels in cell lysates were determined by ELISA. (E) Serum-starved primary human intestinal fibroblasts from CD patients were exposed to elafin for 24 hours. mRNA expression was determined by real-time RT-PCR.
# Human CCD-18Co intestinal fibroblasts (ATCC) (2×10^6 cells/plate) were cultured in minimal essential medium Eagle's medium (MEM) containing 10% fetal bovine serum (FBS) and 1% penicillin-streptomycin (P/S) (Invitrogen). […]
substance,measurement,setting,value
Elafin: small (6 kDa) human elastase-specific protease inhibitor and antimicrobial peptide; active form SEQ ID NO: 2 (AQEPVKGPVSTKPGSCPIILIRCAMLNPPNRCLKDTDCPGIKKCCEGSCGMACFVPQ; listed as Homo sapiens),LPS- and palmitate-induced TNFα secretion,[1],did not affect
same,pro-collagen 1A1 protein expression,[2],significantly increased
